US20110195910A1, “USE OF TOCOTRIENOL COMPOSITION FOR THE PREVENTION OF CANCER” (DAVOS LIFE SCIENCE PTE. LTD., priority 2008, published 2011)

Legend:
[1] = test system: C32 cells; assay: Flow cytometry and western blotting, C32 cells; assay type: cell-based
Method: (§1) 1.1.3 Flow cytometry—Cell cycle distribution was examined using flow cytometry. Briefly, cells were harvested by trypsinization, fixed in 70% ethanol at 4° C. overnight, and then resuspended in PBS. After incubation at 4° C. for overnight, 2×10^6 cells were incubated with in 20 μg/ml propidium iodide (PI) and 2 mg RNaseA for 15 minutes at 37° C. Cells were then examined by BD SLRII cytometer and the results were analyzed using ModFit software (Becton Dickinson, Mountain View, Calif.). Data were expressed as the percentage of cell cycle distribution in the entire population.
(§2) 1.1.5 Western blotting—Detailed protocols have been described previously and are known in the art. Briefly, cell lysates were prepared by suspending cell pellets in lysis buffer [50 mmol/l Tris-HCl (pH 8.0), 150 mmol/l NaCl, 1% NP40, 0.5% deoxycholate, 0.1% SDS, 1 mg/ml aprotinin, 1 μg/ml leupeptin and 1 mmol/l phenylmethylsulfonyl fluoride]. For nuclear protein extraction, NucBuster™ protein extraction kit was used. Protein concentration was measured using the DC Protein Assay kit (Bio-Rad, Hercules, Calif.). Equal amount of protein (30 μg) was loaded onto a 10% SDS polyacrylamide gel for electrophoresis and then transferred onto a polyvinylidene difluoride membrane (Amersham, Piscataway, N.J.). The membrane was then incubated with primary antibodies for 1 hr at room temperature against E-cadherin (BD Biosciences, Bedford, Mass.), α-catenin, β-catenin, γ-catenin, Id-1, Id-3, EGFR, phosphor-c-jun, phosphor-ATF2, cleaved PARP, vimentin, α-smooth muscle actin, twist (Santa Cruz Biotechnology, Calif.), phosphor-IkB-alpha (Ser32/36), phosphor-IKK alpha (Seri 80)/IKK beta (Ser181), phosphor-SAPK/JNK (Thr183/Tyr185) G9, SAPK/JNK, NF-kB p65 (5A5) (Cell Signaling Technology Inc, Beverly, Mass.), Snail (Abcam). After incubation with appropriate secondary antibodies, signals were visualized by ECL western blotting system (Amersham, Piscataway, N.J.). Expression of β-actin and histone H1 were assessed as an internal loading control for total cell lysate and nuclear protein lysate respectively.

[2] = test system: G361 cells; assay: Matrigel-invasion assay, G361 cells; assay type: cell-based; conditions: γ-T3 at IC50 and IC85
Method: (§3) 1.1.4 Matrigel-invasion assay—Matrigel-invasion assay was performed according to a previously published method with modifications. Briefly, cells were pre-incubated in a serum-free RPMI 1640 medium with or without γ-T3 isomers for 24 hrs. Cells (2.5×10^5) resuspended in 500 μl of serum-free RPMI 1640 containing 0.1% bovine serum albumin (BSA) were then added to the upper chamber of a 8 μm pore size insert (Millipore, Bedford, Mass.) manually coated with Matrigel (0.5 mg/ml) (BD Bioscience, Bedford, Mass.). Five hundred μl of invasion buffer containing fibronectin (10 μg/ml) and RPMI 1640 supplemented with 10% FCS were added in the lower chamber as a chemo-attractant. Cells were incubated at 37° C. for 24 hrs in 5% CO2 humidified conditions. At the end of incubation period, inserts were stained with Diff-Quick staining solution (Fischer Scientific). Non-invaded cells on the inside of the insert were scraped off with a cotton swab. Cell invasions were then examined by a phase-contrast microscope. The invaded cells were extracted using extraction buffer (Millipore, Bedford, Mass.) and the cell number was estimated based on absorbance at 595 nm.

[3] = test system: PC-3 cells; assay: Flow cytometry and western blotting, PC-3 cells; assay type: cell-based, human
Method: as §1, §2
(§4) 2.1.4 Flow cytometry was carried out as described above under item 1.1.3. Matrigel-invasion assay was carried out as described above under item 1.1.4. Western blotting was carried out as described above under item 1.1.5.

[4] = test system: PC-3 cells; assay: Matrigel-invasion assay, PC-3 cells; assay type: cell-based, human; conditions: γ-T3 at IC50, 24 hrs
Method: as §3, §4

[5] = Serum-based toxicity assay; assay type: in vivo, C57BL/6 black mice; conditions: 5 dose i.p. injections per week containing 1 mg
Method: 4.1.8 Serum-based toxicity assay—Ten C57BL/6 black mice were given 5 dose intraperitoneal (i.p) injections per week containing 1 mg of γ-tocotrienol or DMSO blank. Mice were sacrificed by cardiac bleeding and the serum was extracted by method described above. Serum level of the biomarkers albumin, creatine, alanine transaminase ALT, aspartate aminotransferase AST, urea and alkaline phosphatase ALP were then measured by the colorimetric-based detection kits purchased from RANDOX laboratories Ltd. (Crumlin, United Kingdom).

[6] = test system: DU145 cells; assay: Spheroid formation assay, DU145 cells; assay type: cell-based
Method: (§5) 5.1.7 Spheroid formation assay—Spheroid formation assay was performed with a protocol modified from previous study (Folkins C, p3560). Briefly, cells were first trypsinized, washed with 1× PBS and resuspended in DMEM F12 medium. Two hundred cells were added into each well of a 24-well-plate pre-coated with polyHEMA (Sigma, St. Louis, Mo.). Cells will be grown in DMEM/F12 mem (Invitrogen, Carlsbad, Calif.) supplemented with 4 μg/mL insulin (Sigma, St. Louis, Mo.), B27 (Invitrogen, Carlsbad, Calif.), 20 ng/mL EGF (Sigma, St. Louis, Mo.), and 20 ng/mL basic FGF (Invitrogen, Carlsbad, Calif.). Fresh medium with the above supplements was added every day. γ-T3 was added at indicated time points and the number of spheroids was counted at day 14 of the assay or at the end of the treatment. Each experiment was repeated in triplicates and each data point represented the mean and standard derivation.

[7] = test system: bladder cancer cell line MGH-U1; assay: Spheroid formation assay, MGH-U1 cells; assay type: cell-based
Method: as §5

[8] = test system: DU145 cells; assay: Western blotting of CD44, DU145 cells; assay type: cell-based; conditions: doses with minimum effect on viability
Method: (§6) 5.1.5 Western blotting was carried out as described above under 1.1.5. The membrane was incubated with primary antibodies directed against CD133 (Miltenyi Biotec, Auburn, Calif.), Bcl-2, PARP, cleaved caspase 3, 7, 9 (Cell Signaling, Technology Inc, Beverly, Mass.), CD44 and β-actin (Santa Cruz Biotechnology, Santa Cruz, Calif.). After washing with TBS-T, the membrane was incubated with secondary antibody against either mouse or rabbit IgG and the signals were visualized using ECL plus western blotting system (Amersham, Piscataway, N.J.).

[9] = test system: MGH-U1 cells; assay: Western blotting of CD44, MGH-U1 cells; assay type: cell-based; conditions: bladder cancer cells
Method: as §6

SMILES: CC(C)=CCC/C(C)=C/CC/C(C)=C/CCC1(C)CCc2cc(O)c(C)c(C)c2O1 (stereo not shown) [γ-T3, 7,8-dimethyltocotrienol]
- JNK phosphorylation ([1]; C32): dosage-dependent increase in JNK phosphorylation activities
- NF-κB p65 activity (nuclear translocation) ([1]; C32): suppressed constitutive NF-κB p65 activity in a dose-dependent manner
- activation of pro-apoptotic proteins (cleaved products) ([1]; C32, different γ-T3 dosage, 24-hr): activation of procaspase 3, 7, 9 as well as PARP
- Id-1 and Id-3 expression levels (EGF-R similar) ([1]; C32, increasing dosages): significantly suppressed to almost undetectable level
- sub-G1 cell population (flow cytometry) ([1]; melanoma cells, γ-T3 at IC50, 24-hr): induction of sub-G1 cell population
- invasion capability compared to untreated control [2]: 2 -time lower
- E-cadherin and γ-catenin protein expression ([3]; PC-3): up-regulated
- JNK phosphorylation ([3]; PC-3): dosage- and time-dependent increase in JNK phosphorylation activities
- NF-κB p65 activity (nuclear translocation) ([3]; PC-3): suppressed constitutive NF-κB p65 activity in a dose-dependent and time-dependent manner
- Snail and mesenchymal markers (vimentin, α-SMA and twist) expression ([3]; PC-3, 24 hrs): down-regulated
- activation of pro-apoptotic proteins (cleaved products) ([3]; PC-3, 24 hrs): activation of procaspase 3, 7, 8, 9 as well as PARP
- EGF-R expression (Id-1 and Id-3 similar) ([3]; PC-3, increasing dosages): significantly suppressed to almost undetectable level
- sub-G1 cell population (flow cytometry) ([3]; γ-T3 IC50-95, 24 hrs): induction of sub-G1 cell population
- invasion capability compared to untreated control [4]: at least 2.5 -time lower
- toxicological changes in serum parameters (Alb, Cre, ALT, AST, Ure, ALP) [5]: no toxicological changes
- spheroid formation ability [6]: almost completely suppressed
- inhibition in spheroid formation [7]: 100%
- CD44 expression [8]: suppression of CD44 expression
- CD44 expression [9]: downregulate CD44 expression
